Article PMC4054929 (Bioorganic & medicinal chemistry, 2014)
Values joined by “and” are separate entries in the source; they are usually repeats but may differ in a detail not shown here. Equal entries are not always repeated.

Key:
[1] = In vivo biodistribution and regional brain uptake in rats; conditions: male SD rats, i.v.
PDE10A [2] = molecular target: PDE10A (Rattus norvegicus, UniProt Q9QYJ6)
PDE10A [3] = conditions: NHP brain
PDE10A [4] = conditions: unlabeled compounds; cited from earlier work
[5] = rats pretreated with MP-10 2.0 mg/kg 5 min prior to tracer, 30 min p.i.

Chain of PDE10A (Rattus norvegicus, UniProt Q9QYJ6) (Q9QYJ6 whole entry): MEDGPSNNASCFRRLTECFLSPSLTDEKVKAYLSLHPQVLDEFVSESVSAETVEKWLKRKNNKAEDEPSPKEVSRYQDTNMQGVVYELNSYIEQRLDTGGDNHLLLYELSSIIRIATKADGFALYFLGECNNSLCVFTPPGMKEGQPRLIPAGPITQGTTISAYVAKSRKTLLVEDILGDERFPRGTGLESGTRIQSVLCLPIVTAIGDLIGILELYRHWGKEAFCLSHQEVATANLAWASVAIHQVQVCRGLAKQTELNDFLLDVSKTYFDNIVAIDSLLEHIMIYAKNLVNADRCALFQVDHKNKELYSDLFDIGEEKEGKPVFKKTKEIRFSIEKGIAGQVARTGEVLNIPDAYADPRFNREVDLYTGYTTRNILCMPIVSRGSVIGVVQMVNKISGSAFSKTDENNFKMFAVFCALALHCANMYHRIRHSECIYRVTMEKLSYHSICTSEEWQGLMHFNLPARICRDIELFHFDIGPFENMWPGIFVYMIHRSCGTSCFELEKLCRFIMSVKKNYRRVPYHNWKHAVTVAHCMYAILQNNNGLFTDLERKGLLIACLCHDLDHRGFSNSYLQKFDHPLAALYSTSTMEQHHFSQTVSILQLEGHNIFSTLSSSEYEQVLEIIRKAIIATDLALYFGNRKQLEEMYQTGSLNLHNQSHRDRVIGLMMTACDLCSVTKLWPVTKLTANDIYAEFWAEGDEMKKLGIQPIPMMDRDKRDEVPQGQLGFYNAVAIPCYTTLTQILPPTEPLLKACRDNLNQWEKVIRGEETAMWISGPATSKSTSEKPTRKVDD

Structure (SMILES): Cn1cc(-c2ccncc2)c(-c2ccc(OCc3ccc4cc(O[11CH3])ccc4n3)cc2)n1 [[^11C]3, 6-(methoxy-^11C)-2-((4-(1-methyl-4-(pyridin-4-yl)-1H-pyrazol-3-yl)phenoxy)methyl)quinoline]
- Biodistribution, blood ([1]; 5 min p.i.): 0.282 ± 0.025 %ID/gram
- Biodistribution, cerebellum ([1]; 5 min p.i.): 0.251 ± 0.031 %ID/gram
- Biodistribution, fat ([1]; 5 min p.i.): 0.139 ± 0.038 %ID/gram
- Biodistribution, heart ([1]; 5 min p.i.): 0.416 ± 0.026 %ID/gram
- Biodistribution, kidney ([1]; 5 min p.i.): 1.333 ± 0.282 %ID/gram
- Biodistribution, liver ([1]; 5 min p.i.): 5.357 ± 0.989 %ID/gram
- Biodistribution, lung ([1]; 5 min p.i.): 0.744 ± 0.241 %ID/gram
- Biodistribution, muscle ([1]; 5 min p.i.): 0.151 ± 0.027 %ID/gram
- Biodistribution, striatum ([1]; 5 min p.i.): 0.293 ± 0.075 ^b %ID/gram
- Biodistribution, total brain ([1]; 5 min p.i.): 0.249 ± 0.037 %ID/gram
- Biodistribution, blood ([1]; 30 min p.i. (control)): 0.275 ± 0.041 %ID/gram
- Biodistribution, cerebellum ([1]; 30 min p.i. (control)): 0.090 ± 0.018 %ID/gram
- Biodistribution, fat ([1]; 30 min p.i. (control)): 0.221 ± 0.060 %ID/gram
- Biodistribution, heart ([1]; 30 min p.i. (control)): 0.264 ± 0.032 %ID/gram
- Biodistribution, kidney ([1]; 30 min p.i. (control)): 0.883 ± 0.123 %ID/gram
- Biodistribution, liver ([1]; 30 min p.i. (control)): 3.172 ± 0.606 %ID/gram
- Biodistribution, lung ([1]; 30 min p.i. (control)): 0.389 ± 0.082 %ID/gram
- Biodistribution, muscle ([1]; 30 min p.i. (control)): 0.175 ± 0.009 %ID/gram
- Biodistribution, striatum ([1]; 30 min p.i. (control)): 0.160 ± 0.023 ^a %ID/gram
- Biodistribution, total brain ([1]; 30 min p.i. (control)): 0.105 ± 0.011 %ID/gram
- Biodistribution, blood ([1]; 60 min p.i.): 0.210 ± 0.023 %ID/gram
- Biodistribution, cerebellum ([1]; 60 min p.i.): 0.066 ± 0.008 %ID/gram
- Biodistribution, fat ([1]; 60 min p.i.): 0.135 ± 0.026 %ID/gram
- Biodistribution, heart ([1]; 60 min p.i.): 0.182 ± 0.020 %ID/gram
- Biodistribution, kidney ([1]; 60 min p.i.): 0.637 ± 0.052 %ID/gram
- Biodistribution, liver ([1]; 60 min p.i.): 1.724 ± 0.510 %ID/gram
- Biodistribution, lung ([1]; 60 min p.i.): 0.249 ± 0.015 %ID/gram
- Biodistribution, muscle ([1]; 60 min p.i.): 0.129 ± 0.006 %ID/gram
- Biodistribution, striatum ([1]; 60 min p.i.): 0.089 ± 0.014 ^a %ID/gram
- Biodistribution, total brain ([1]; 60 min p.i.): 0.074 ± 0.005 %ID/gram

Structure (SMILES): Cn1ncc(-c2ccncc2)c1-c1ccc(OCc2cc(O[11CH3])c3ccccc3n2)cc1 [[^11C]4, 4-(methoxy-^11C)-2-((4-(1-methyl-4-(pyridin-4-yl)-1H-pyrazol-5-yl)phenoxy)methyl)quinoline]
- Biodistribution, blood ([1]; 5 min p.i.): 0.099 ± 0.015 %ID/gram
- Biodistribution, cerebellum ([1]; 5 min p.i.): 0.094 ± 0.017 %ID/gram
- Biodistribution, fat ([1]; 5 min p.i.): 0.066 ± 0.016 %ID/gram
- Biodistribution, heart ([1]; 5 min p.i.): 0.335 ± 0.026 %ID/gram
- Biodistribution, kidney ([1]; 5 min p.i.): 1.744 ± 0.316 %ID/gram
- Biodistribution, liver ([1]; 5 min p.i.): 3.312 ± 0.494 %ID/gram
- Biodistribution, lung ([1]; 5 min p.i.): 0.643 ± 0.196 %ID/gram
- Biodistribution, muscle ([1]; 5 min p.i.): 0.146 ± 0.027 %ID/gram
- Biodistribution, striatum ([1]; 5 min p.i.): 0.151 ± 0.033 ^a %ID/gram
- Biodistribution, total brain ([1]; 5 min p.i.): 0.091 ± 0.017 %ID/gram
- Biodistribution, blood ([1]; 30 min p.i. (control)): 0.067 ± 0.006 %ID/gram
- Biodistribution, cerebellum ([1]; 30 min p.i. (control)): 0.024 ± 0.007 %ID/gram
- Biodistribution, fat ([1]; 30 min p.i. (control)): 0.139 ± 0.027 %ID/gram
- Biodistribution, heart ([1]; 30 min p.i. (control)): 0.132 ± 0.019 %ID/gram
- Biodistribution, kidney ([1]; 30 min p.i. (control)): 0.645 ± 0.088 %ID/gram
- Biodistribution, liver ([1]; 30 min p.i. (control)): 4.430 ± 0.481 %ID/gram
- Biodistribution, lung ([1]; 30 min p.i. (control)): 0.156 ± 0.020 %ID/gram
- Biodistribution, muscle ([1]; 30 min p.i. (control)): 0.093 ± 0.010 %ID/gram
- Biodistribution, striatum ([1]; 30 min p.i. (control)): 0.083 ± 0.010 ^a %ID/gram
- Biodistribution, total brain ([1]; 30 min p.i. (control)): 0.025 ± 0.004 %ID/gram
- Biodistribution, blood ([1]; 60 min p.i.): 0.067 ± 0.011 %ID/gram
- Biodistribution, cerebellum ([1]; 60 min p.i.): 0.015 ± 0.003 %ID/gram
- Biodistribution, fat ([1]; 60 min p.i.): 0.139 ± 0.058 %ID/gram
- Biodistribution, heart ([1]; 60 min p.i.): 0.103 ± 0.012 %ID/gram
- Biodistribution, kidney ([1]; 60 min p.i.): 0.575 ± 0.075 %ID/gram
- Biodistribution, liver ([1]; 60 min p.i.): 4.588 ± 0.577 %ID/gram
- Biodistribution, lung ([1]; 60 min p.i.): 0.107 ± 0.016 %ID/gram
- Biodistribution, muscle ([1]; 60 min p.i.): 0.052 ± 0.009 %ID/gram
- Biodistribution, striatum ([1]; 60 min p.i.): 0.037 ± 0.004 ^a %ID/gram
- Biodistribution, total brain ([1]; 60 min p.i.): 0.015 ± 0.002 %ID/gram

Structure (SMILES): Cn1cc(-c2ccncc2)c(-c2ccc(OCc3nc4ccccc4cc3O[11CH3])cc2)n1 [[^11C]1, 3-(methoxy-^11C)-2-((4-(1-methyl-4-(pyridin-4-yl)-1H-pyrazol-3-yl)phenoxy)methyl)quinoline]
- Distribution, blood, MP-10 block (PDE10A [2]; [5]): 0.407 ± 0.026 %ID/gram
- Distribution, cerebellum, MP-10 block (PDE10A [2]; [5]): 0.119 ± 0.006 %ID/gram
- Distribution, fat, MP-10 block (PDE10A [2]; [5]): 1.353 ± 0.202 %ID/gram
- Distribution, heart, MP-10 block (PDE10A [2]; [5]): 0.340 ± 0.036 %ID/gram
- Distribution, kidney, MP-10 block (PDE10A [2]; [5]): 1.523 ± 0.162 %ID/gram
- Distribution, liver, MP-10 block (PDE10A [2]; [5]): 5.781 ± 0.696 %ID/gram
- Distribution, lung, MP-10 block (PDE10A [2]; [5]): 0.404 ± 0.024 %ID/gram
- Distribution, muscle, MP-10 block (PDE10A [2]; [5]): 0.257 ± 0.026 %ID/gram
- Distribution, striatum, MP-10 block (PDE10A [2]; [5]): 0.294 ± 0.013 %ID/gram
- Distribution, total brain, MP-10 block (PDE10A [2]; [5]): 0.128 ± 0.003 %ID/gram
- decrease of striatum: cerebellum ratio by MP-10 pretreatment (PDE10A [2]; rats, MP-10 2 mg/kg 5 min prior to tracer, 30 min p.i.): 50%
- striatal binding after blocking dose of MP-10 (PDE10A [2]; rats, MP-10 2 mg/kg i.v. 5 min prior to tracer, p < 0.05): significant reduction
- blood–brain-barrier penetration (PDE10A [3]): readily penetrate the blood–brain-barrier
- Biodistribution, blood ([1]; 5 min p.i.): 0.679 ± 0.116 %ID/gram
- Biodistribution, cerebellum ([1]; 5 min p.i.): 0.229 ± 0.039 %ID/gram
- Biodistribution, fat ([1]; 5 min p.i.): 0.935 ± 0.462 %ID/gram
- Biodistribution, heart ([1]; 5 min p.i.): 0.733 ± 0.039 %ID/gram
- Biodistribution, kidney ([1]; 5 min p.i.): 4.354 ± 0.473 %ID/gram
- Biodistribution, liver ([1]; 5 min p.i.): 11.005 ± 0.758 %ID/gram
- Biodistribution, lung ([1]; 5 min p.i.): 1.602 ± 0.509 %ID/gram
- Biodistribution, muscle ([1]; 5 min p.i.): 0.412 ± 0.064 %ID/gram
- Biodistribution, striatum ([1]; 5 min p.i.): 0.488 ± 0.101 ^a %ID/gram
- Biodistribution, total brain ([1]; 5 min p.i.): 0.231 ± 0.038 %ID/gram
- Biodistribution, blood ([1]; 30 min p.i. (control)): 0.321 ± 0.021 %ID/gram
- Biodistribution, cerebellum ([1]; 30 min p.i. (control)): 0.097 ± 0.016 %ID/gram
- Biodistribution, fat ([1]; 30 min p.i. (control)): 0.851 ± 0.314 %ID/gram
- Biodistribution, heart ([1]; 30 min p.i. (control)): 0.296 ± 0.038 %ID/gram
- Biodistribution, kidney ([1]; 30 min p.i. (control)): 1.647 ± 0.459 %ID/gram
- Biodistribution, liver ([1]; 30 min p.i. (control)): 7.345 ± 1.472 %ID/gram
- Biodistribution, lung ([1]; 30 min p.i. (control)): 0.408 ± 0.083 %ID/gram
- Biodistribution, muscle ([1]; 30 min p.i. (control)): 0.244 ± 0.073 %ID/gram
- Biodistribution, striatum ([1]; 30 min p.i. (control)): 0.452 ± 0.086 ^a %ID/gram and 0.452 ± 0.086 %ID/gram
- Biodistribution, total brain ([1]; 30 min p.i. (control)): 0.133 ± 0.024 %ID/gram
- Biodistribution, blood ([1]; 60 min p.i.): 0.275 ± 0.028 %ID/gram
- Biodistribution, cerebellum ([1]; 60 min p.i.): 0.064 ± 0.006 %ID/gram
- Biodistribution, fat ([1]; 60 min p.i.): 0.500 ± 0.087 %ID/gram
- Biodistribution, heart ([1]; 60 min p.i.): 0.199 ± 0.013 %ID/gram
- Biodistribution, kidney ([1]; 60 min p.i.): 1.275 ± 0.141 %ID/gram
- Biodistribution, liver ([1]; 60 min p.i.): 6.398 ± 0.945 %ID/gram
- Biodistribution, lung ([1]; 60 min p.i.): 0.299 ± 0.042 %ID/gram
- Biodistribution, muscle ([1]; 60 min p.i.): 0.142 ± 0.014 %ID/gram
- Biodistribution, striatum ([1]; 60 min p.i.): 0.380 ± 0.048 ^a %ID/gram
- Biodistribution, total brain ([1]; 60 min p.i.): 0.095 ± 0.008 %ID/gram

Structure (SMILES): COc1cc(COc2ccc(-c3nn(C)cc3-c3ccncc3)cc2)nc2ccccc12 [Compound 2]
- IC50 (PDE10A [4]): 0.28 ± 0.06 nM
